SMILES | melting point [°C]
Cc1ccc(NC(=N)c2ccccn2)cc1C | 105 to 107
Cc1ccc(-c2ccc(C(=O)Nc3cc4ncc(CN5CCCC5)cc4cc3F)cc2)cc1 | 202 to 204
CC(=O)Nc1nc(CN2CCN(C(c3ccccc3)c3ccc(Cl)cc3)CC2)cs1 (stereo not given) | 140 to 145
O=C(CN1C(=O)C(NC(=O)OCc2ccccc2)N=C(c2ccccc2)c2ccccc21)NCc1ccccc1 (stereo not given) | 204 to 205
CC(C)(C)OC1C2C=CC1C1N=NC21 (stereo not given) | 78
CCCCCCCCCCC#Cc1csc(C=O)n1 | 25.5 to 26
CCC(CC)c1ccc(Cl)c2nc3n(c12)CCCCN3c1ncc(C(N)=O)cc1C | 234 to 235
CCC1CCC2C3CC=C4CCCCC4(C)C3CCC12C (stereo not given) | 104 to 106
N#Cc1ccc(C(=O)Nc2nc(-c3ccco3)c(C(=O)C3CCOCC3)s2)o1 | 222 to 223
Nc1nc2c(nc(Br)n2Cc2ccc(Cl)cc2)c(=O)[nH]1 | > 300
CCc1nn(C(=O)Oc2ccccc2)c(=O)n1C | 141
CC(=O)CC1=C(C#N)C(c2cccc3nonc23)c2c[nH]nc2N1 (stereo not given) | 200
O=C(O)c1cc(=O)c2c(I)cc(Cl)cc2[nH]1 | 298
Clc1c(Cl)c(Cl)c2c(nc(Cl)n2COCCOCc2ccccc2)c1Cl | 95
CCOC(=O)c1ncn2c1CN(C)C(=O)c1cnccc1-2 | 205 to 206
CCCCS(=O)(=O)Nc1c(C)c(C)c2c(c1C)C(c1ccc(C(C)C)cc1)CO2 (stereo not given) | 96 to 97
COC(=O)c1ccc(OC)cc1S | 35 to 37
COc1ccc([C@]2(C)Cc3cc(OC)ccc3[C@@H]2CCC2OCCCO2)cc1 (racemic) | 86 to 88
CC(C)OCC1(C(F)(F)F)c2cc(Cl)ccc2Nc2ncc(Cl)cc21 (stereo not given) | 137 to 138
COC(=O)c1cc(OCc2ccccc2)nn1-c1ccccc1 | 53 to 54
O=C(O)c1ccc([N+](=O)[O-])cc1-c1ccccc1 | 174 to 176
COC(=O)N1c2ccccc2Sc2nccnc21 | 137 to 138
O=C(O)CCc1cn(Cc2ccc(OCc3ccccc3)cc2)cc1-c1ccccc1 | 130 to 131
COc1ccc(CCN(C)CCCN(C(C)C)S(=O)(=O)c2ccc(Cl)c(Cl)c2)cc1OC | 62 to 64

SMILES | melting point [°C]
Clc1nc(C2=NCCN2)[nH]c1Cl | 260
Cn1cc2c(nc(NC(=O)Nc3ccc(CC(=O)NCCCNC(=O)OC(C)(C)C)cc3)n3nc(-c4ccco4)nc23)n1 | 198 to 205
CC1(C)[C@@H](CNS(C)(=O)=O)CC[C@@]1(C)NCC(=O)N1C[C@@H](F)C[C@H]1C#N | 157 to 160
O=C(O)C1=Cc2ccc(C(F)(F)F)cc2Oc2ccccc21 | 180
CCC#CN1CCC(O)(Cc2ccccc2)CC1 | 51 to 53
COC(=O)N(C)CCc1ccc2[nH]cc(S(=O)(=O)c3ccccc3)c2c1 | 195 to 197
O=C1NC(=O)c2c1c(-c1ccccc1Cl)cc1c2c(Br)cn1CCCN1CCOCC1 | 117 to 120
C=CCN(CC=C)Cc1nc(-c2ncn3c2[C@@H]2CCN2C(=O)c2c(Cl)cccc2-3)no1 | 165 to 170
O=C(O)COc1ccc2cc(-c3csc(-c4ccccc4)n3)ccc2c1Br | 222 to 230
CSc1ccc(-c2coc3ccc(-c4nnc(N)o4)cc23)cc1 | 255 to 256
OCCC1(CCO)CCN(Cc2ccccc2)CC1 | 75 to 78
CS(=O)(=O)c1ccc(-c2cnn(CC(F)(F)F)c(=O)c2NC2CCCC2)cc1 | 134 to 139
CS(=O)(=O)CCCCC(c1c(F)cccc1F)S(=O)(=O)c1ccc(Cl)cc1 (stereo not given) | 118 to 119
CCC(CC)Cn1c(=O)c(=O)[nH]c2cc(Cl)c([N+](=O)[O-])cc21 | 232 to 233
O=C(N[C@@H](Cc1ccccc1)[C@H]1CO1)OCc1ccccc1 | 102 to 103
COC(=O)CC1CC(=O)Nc2ccccc21 (stereo not given) | 115 to 116
O=C(O)c1ccc(Cl)c(Sc2ccccc2[N+](=O)[O-])c1 | 261 to 262
FC(F)=C(F)CCSc1nc(-c2ccc(Cl)cc2)no1 | 49 to 52
Oc1nc2ccc(F)cc2n2c(C(F)(F)F)nnc12 | 298 to 302
COC(=O)CNc1cccc(C(F)(F)F)c1 | 60 to 63
Cc1nc(N2CCN(CC3CC3)C2=O)sc1C(=O)NCc1ncccn1 | 218 to 220
CC(=O)OCc1cccc2sc(-c3ccccc3)nc12 | 83 to 84
CN1C(=O)C2(COc3cc4c(cc32)OCCO4)c2c(C(=O)NC3CCCC3)cccc21 (stereo not given) | 135 to 136
CC1(C)CC(O)C(C)(C)c2cc(Cn3cccn3)c(/C=C/c3ccc(C(=O)O)cc3)cc21 (stereo not given) | 242

SMILES | melting point [°C]
OCC1OC(n2cnc3c(NN4CCOCC4)nc(Cl)nc32)C(O)C1O (stereo not given) | 160 to 161
O=c1c(Cl)cc2nc3ccc(F)cc3sc-2c1Cl | 256 to 258
CS(=O)(=O)N(c1cccc(C(=O)Nc2nccs2)c1)C1CN(C(c2ccc(Cl)cc2)c2ccc(Cl)cc2)C1 | 244
CCCCN(CCCC)C(=O)Nc1cccc(Br)c1 | 80 to 81
CC(C(=O)O)c1ccc2c(c1)Cc1cccnc1S2 (stereo not given) | 203 to 204
O=C(O)c1cc2c(OC[C@@H](O)CN3CCC(c4ccc5ccccc5c4)CC3)cccc2[nH]1 | 171 to 173
CCCCCCCCCCCCOc1ccc(C(=O)Oc2ccc(C(=O)OC3CCC(CCC)(CCC)OC3=O)cc2)cc1 (stereo not given) | 91
COc1ccc(CNC(=O)c2c(-c3ccncc3)c(-c3ccc(F)cc3)nn2C)cc1 | 162 to 165
CC(c1oc2ccc(F)cc2c(=O)c1-c1ccccc1)n1cnc2c(N)ncnc21 (stereo not given) | 264 to 269
CCCCCCN1CCN(Cc2ccc(N)cc2)C(=O)C1=O | 99 to 102
N#Cc1c(N2CCN(C(=O)c3cccs3)CC2)c2cc(F)cnc2n(CC(=O)c2ccccc2)c1=O | 262
COc1cc2c(=O)n(CCN(C)C)c3c(cnc4cccc([N+](=O)[O-])c43)c2cc1OC | 194 to 195
CC(C)CCc1c(-c2ccc(S(N)(=O)=O)cc2)cnn(-c2cccc(Cl)c2)c1=O | 167 to 170
CCOC(=O)C1=Cc2cc(Cl)cc(-c3cccc(OC)c3)c2OC1C(F)(F)F (stereo not given) | 93.7 to 95.1
CCN(c1nc(C)cc(N2CCSCC2)n1)c1ccc(C(C)C)cc1I | 51 to 53
COCc1cc([N+](=O)[O-])c(Cl)cc1C(=O)Cl | 63 to 65
CCOc1ccc([N+](=O)[O-])c(C=C[N+](=O)[O-])c1OCc1ccccc1 | 110
O=C(Nc1ccc(F)cc1)Nn1cnc2ccccc2c1=O | 237 to 238
CC(C)(C)OC(=O)N1CCC(O)(c2ccc(Oc3ccc(NC(=O)c4ccc(Cl)c(Cl)c4)cc3)cc2)CC1 | 208 to 209
CCc1ccccc1NC=C1C(=O)N(c2ccc(C(N)=O)cc2)N=C1C | 225
OC1(c2ccccc2)CCN(CCCC2COc3ccccc3O2)CC1 (stereo not given) | 95 to 98
CCCCCCc1cc(-c2ccccc2)c(OCC(=O)O)c(-c2ccccc2)c1 | 87 to 89

Reference: a melting point compilation (Tetko et al.; mined from patent text by program, amines drawn as free bases though some values may be those of a salt)
